# Target: T1, Group 3 secretory phospholipase A2 (Homo sapiens, UniProt Q9NZ20)
# T1 sequence (Q9NZ20 whole entry): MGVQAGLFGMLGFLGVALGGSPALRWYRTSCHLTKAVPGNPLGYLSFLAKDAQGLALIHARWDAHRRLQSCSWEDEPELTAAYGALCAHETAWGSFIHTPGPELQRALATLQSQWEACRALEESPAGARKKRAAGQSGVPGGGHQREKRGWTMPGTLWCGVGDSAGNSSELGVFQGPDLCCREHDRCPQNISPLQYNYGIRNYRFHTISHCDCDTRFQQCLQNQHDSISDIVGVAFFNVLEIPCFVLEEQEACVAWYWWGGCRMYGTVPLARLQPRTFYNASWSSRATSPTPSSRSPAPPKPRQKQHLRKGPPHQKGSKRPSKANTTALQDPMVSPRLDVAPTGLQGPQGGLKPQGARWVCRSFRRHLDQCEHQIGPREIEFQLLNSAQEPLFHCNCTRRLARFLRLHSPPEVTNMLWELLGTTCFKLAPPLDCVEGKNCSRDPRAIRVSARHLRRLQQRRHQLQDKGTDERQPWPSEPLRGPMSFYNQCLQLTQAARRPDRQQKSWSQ
# Experiment: HGIII-sPLA2 enzyme inhibition potency – biochemical, QFRET, IC50, dose response (AID 743457)
compound,measurement,value
Cc1noc(/C=C/N(C)C)c1S(=O)(=O)N1CCCC(C(=O)NCc2ccco2)C1 (stereo not drawn),IC50,122 µM
COCCN1C(=O)/C(=C/c2c(OC)cc(OC)cc2OC)C(=O)N(c2ccccc2)C1=O,IC50,100 µM
NS(=O)(=O)c1ccc(Nc2nc3ccccc3nc2NS(=O)(=O)c2cccc([N+](=O)[O-])c2)cc1,IC50,42.5 µM
Cc1c(Cl)cccc1N=C(S)NCCc1ccc(S(N)(=O)=O)cc1,IC50,122 µM
"COc1ccc(C=NNC(=O)CSc2n[nH]c(=O)[nH]c2=O)cc1 [2-[[3,5-bis(oxidanylidene)-2H-1,2,4-triazin-6-yl]sulfanyl]-N-[(4-methoxyphenyl)methylideneamino]ethanamide]",IC50,48 µM
"COC(=O)CCC(=O)OC1(C)C(=O)C2=CN(CCCOC(C)C)C(c3ccc(OC)cc3)=CC2=C(Br)C1=O (stereo not drawn) [4-O-[5-bromo-3-(4-methoxyphenyl)-7-methyl-6,8-dioxo-2-(3-propan-2-yloxypropyl)isoquinolin-7-yl] 1-O-methyl butanedioate]",IC50,122 µM
"Cc1n[nH]c(N=Nc2ccc(O)cc2)n1 [4-[(5-methyl-1H-1,2,4-triazol-3-yl)hydrazinylidene]cyclohexa-2,5-dien-1-one]",IC50,20.5 µM
Cc1ccc(O)c(-c2cc(C(=O)Nc3ccc(S(=O)(=O)Nc4nccc(C)n4)cc3)[nH]n2)c1 [5-(2-Hydroxy-5-methyl-phenyl)-2H-pyrazole-3-carboxylic acid [4-(4-methyl-pyrimidin-2-ylsulfamoyl)-phenyl]-amide],IC50,122 µM
COc1cc(/C=C(/C#N)c2nc3ccccc3[nH]2)ccc1OCc1ccc(C(=O)O)o1 [5-[[4-[(Z)-2-(1H-benzimidazol-2-yl)-2-cyanoethenyl]-2-methoxyphenoxy]methyl]-2-furancarboxylic acid],IC50,66.3 µM
"CSCc1nc2sc(C(=O)Nc3nc(C)cs3)c(C)c2c(=O)[nH]1 [5-methyl-2-(methylsulfanylmethyl)-N-(4-methyl-1,3-thiazol-2-yl)-4-oxo-3H-thieno[2,3-d]pyrimidine-6-carboxamide]",IC50,122 µM
O=C1c2ccccc2SC1/C=N/c1cc([N+](=O)[O-])ccc1O (stereo not drawn) [(2Z)-2-[[(5-nitro-2-oxidanyl-phenyl)amino]methylidene]-1-benzothiophen-3-one],IC50,122 µM
CCN(CC)c1nc2c3c(nc4c(c3c1C#N)CC(=O)N4c1ccc(Cl)cc1)NC(C)=N2 [MLS000389664],IC50,25 µM
CCCCn1c(NS(=O)(=O)c2ccccc2)c(C(=O)OCC)c2nc3ccccc3nc21 [MLS000589117],IC50,40.6 µM
Cc1ccc(-n2ncc3c(NNC(=O)c4ccco4)ncnc32)cc1C [MLS001235991],IC50,122 µM
"O=C1C([N+](=O)[O-])=CC(Cl)=CC1/C=N/NC(=O)C(O)(c1ccccc1)c1ccccc1 (stereo not drawn) [N''''-[(E)-(3-chloro-5-nitro-6-oxocyclohexa-2,4-dien-1-ylidene)methyl]-2-hydroxy-2,2-diphenylacetohydrazide]",IC50,32.5 µM
"C=CCSC(N)=NN=CC1C=C(Br)C=C([N+](=O)[O-])C1=O (stereo not drawn) [N''-[[(E)-(3-bromo-5-nitro-6-oxo-1-cyclohexa-2,4-dienylidene)methyl]amino]carbamimidothioic acid prop-2-enyl ester]",IC50,40.6 µM
Cc1ccc(C(=O)Nc2nc(C(C)(C)C)cs2)s1 [N-(4-tert-butyl-2-thiazolyl)-5-methyl-2-thiophenecarboxamide],IC50,122 µM
Cc1ccc(C(=O)n2c3ccccc3c3ccccc32)cc1 [carbazol-9-yl-(4-methylphenyl)methanone],IC50,30.3 µM

# From BindingDB's records for doi:10.7270/Q2CV4GCW (The Scripps Research Institute Molecular Screening Center, 2014)
